Experimental data as given in patent publication US8226943B2, “Antibodies to notch receptors” (OncoMed Pharmaceuticals, Inc., priority 2008, dated 2012).

Tests used:
[1] = system: breast tumor xenograft line OMP-B34; experiment: OMP-B34 breast tumor xenograft growth; type: in vivo, NOD/SCID mice; conditions: established tumors, 15 mg/kg once a week
Description: (§1) The 59R1 IgG2 antibody was also tested in vivo in the breast tumor xenograft lines OMP-B34, OMP-B39, OMP-B44, PE13, and UM-T1, the pancreas tumor xenograft line OMP-PN8, and the colon tumor xenograft line OMP-C8. These tumor xenograft lines were established by adhering to procedures described in Al-Hajj et al., 2003, Proc. Natl. Acad. Sci. USA, 100:3983-3988. Female NOD/SCID immuno-compromised mice 7-10 weeks old were used for the establishment of the breast tumor xenografts and male NOD/SCID mice were used for the OMP-Pn8 and OMP-C8 tumor-models (Harlan, Indianapolis, Ind.). The 59R1 IgG2 antibody was also tested in vivo in a Colo-205 colon tumor xenograft model. Female immunodeficient bg/nu XID mice on a Swiss CD-1 background were used for the Colo-205 xenograft tumor model. In case of the breast cancer models, slow-releasing estrogen pellets (0.36 mg) had to be implanted. Mice were subcutaneously injected on the right flank with 50,000 (OMP-B34, OMP-B39, OMP-B44, PE13, and UM-T1) or 1×10^7 (Colo-205) viable cells, respectively, in a mixture of PBS (without magnesium or calcium) and Matrigel at a 1:1 ratio. […] Antibodies were administered weekly and tumors measured twice weekly. […] Tumor volume was calculated as described Al-Hajj et al. (2003). Data are expressed as the mean and the mean±S.E.M. Group means were compared using Student's two-tailed, unpaired t-test. […]

[2] = system: breast tumors T1, PE13, and B51; experiment: Gene Set Enrichment Analysis in treated breast tumors; type: in vivo, mice
Source text: Several pathways/gene sets that are regulated by antibody 59R1 in tumor cells were identified (Table 9) using Gene Set Enrichment Analysis (Mootha et al., 2003, Nature Genetics 34:267-73; Subramanian et al., 2005, Proc. Natl. Acad. Sci. USA 102:15545-50) in the breast tumors T1, PE13, and B51.

[3] = system: colon tumor xenograft line OMP-C8; experiment: OMP-C8 colon tumor xenograft growth; type: in vivo, NOD/SCID mice; conditions: established tumors, 15 mg/kg once a week
Description: as §1

stroma of Colo205 tumors = experiment: Microarray gene expression in stroma of treated xenograft tumors, Colo205; type: in vivo, mice; conditions: 59R1 vs control
human Notch3 = human Notch3 (Homo sapiens, UniProt Q9UM47); experiment: FACS binding to transiently transfected HEK-293 cells, human Notch3; parameters: expressed in transfected cells
Chain of human Notch3 (Q9UM47 40-2321): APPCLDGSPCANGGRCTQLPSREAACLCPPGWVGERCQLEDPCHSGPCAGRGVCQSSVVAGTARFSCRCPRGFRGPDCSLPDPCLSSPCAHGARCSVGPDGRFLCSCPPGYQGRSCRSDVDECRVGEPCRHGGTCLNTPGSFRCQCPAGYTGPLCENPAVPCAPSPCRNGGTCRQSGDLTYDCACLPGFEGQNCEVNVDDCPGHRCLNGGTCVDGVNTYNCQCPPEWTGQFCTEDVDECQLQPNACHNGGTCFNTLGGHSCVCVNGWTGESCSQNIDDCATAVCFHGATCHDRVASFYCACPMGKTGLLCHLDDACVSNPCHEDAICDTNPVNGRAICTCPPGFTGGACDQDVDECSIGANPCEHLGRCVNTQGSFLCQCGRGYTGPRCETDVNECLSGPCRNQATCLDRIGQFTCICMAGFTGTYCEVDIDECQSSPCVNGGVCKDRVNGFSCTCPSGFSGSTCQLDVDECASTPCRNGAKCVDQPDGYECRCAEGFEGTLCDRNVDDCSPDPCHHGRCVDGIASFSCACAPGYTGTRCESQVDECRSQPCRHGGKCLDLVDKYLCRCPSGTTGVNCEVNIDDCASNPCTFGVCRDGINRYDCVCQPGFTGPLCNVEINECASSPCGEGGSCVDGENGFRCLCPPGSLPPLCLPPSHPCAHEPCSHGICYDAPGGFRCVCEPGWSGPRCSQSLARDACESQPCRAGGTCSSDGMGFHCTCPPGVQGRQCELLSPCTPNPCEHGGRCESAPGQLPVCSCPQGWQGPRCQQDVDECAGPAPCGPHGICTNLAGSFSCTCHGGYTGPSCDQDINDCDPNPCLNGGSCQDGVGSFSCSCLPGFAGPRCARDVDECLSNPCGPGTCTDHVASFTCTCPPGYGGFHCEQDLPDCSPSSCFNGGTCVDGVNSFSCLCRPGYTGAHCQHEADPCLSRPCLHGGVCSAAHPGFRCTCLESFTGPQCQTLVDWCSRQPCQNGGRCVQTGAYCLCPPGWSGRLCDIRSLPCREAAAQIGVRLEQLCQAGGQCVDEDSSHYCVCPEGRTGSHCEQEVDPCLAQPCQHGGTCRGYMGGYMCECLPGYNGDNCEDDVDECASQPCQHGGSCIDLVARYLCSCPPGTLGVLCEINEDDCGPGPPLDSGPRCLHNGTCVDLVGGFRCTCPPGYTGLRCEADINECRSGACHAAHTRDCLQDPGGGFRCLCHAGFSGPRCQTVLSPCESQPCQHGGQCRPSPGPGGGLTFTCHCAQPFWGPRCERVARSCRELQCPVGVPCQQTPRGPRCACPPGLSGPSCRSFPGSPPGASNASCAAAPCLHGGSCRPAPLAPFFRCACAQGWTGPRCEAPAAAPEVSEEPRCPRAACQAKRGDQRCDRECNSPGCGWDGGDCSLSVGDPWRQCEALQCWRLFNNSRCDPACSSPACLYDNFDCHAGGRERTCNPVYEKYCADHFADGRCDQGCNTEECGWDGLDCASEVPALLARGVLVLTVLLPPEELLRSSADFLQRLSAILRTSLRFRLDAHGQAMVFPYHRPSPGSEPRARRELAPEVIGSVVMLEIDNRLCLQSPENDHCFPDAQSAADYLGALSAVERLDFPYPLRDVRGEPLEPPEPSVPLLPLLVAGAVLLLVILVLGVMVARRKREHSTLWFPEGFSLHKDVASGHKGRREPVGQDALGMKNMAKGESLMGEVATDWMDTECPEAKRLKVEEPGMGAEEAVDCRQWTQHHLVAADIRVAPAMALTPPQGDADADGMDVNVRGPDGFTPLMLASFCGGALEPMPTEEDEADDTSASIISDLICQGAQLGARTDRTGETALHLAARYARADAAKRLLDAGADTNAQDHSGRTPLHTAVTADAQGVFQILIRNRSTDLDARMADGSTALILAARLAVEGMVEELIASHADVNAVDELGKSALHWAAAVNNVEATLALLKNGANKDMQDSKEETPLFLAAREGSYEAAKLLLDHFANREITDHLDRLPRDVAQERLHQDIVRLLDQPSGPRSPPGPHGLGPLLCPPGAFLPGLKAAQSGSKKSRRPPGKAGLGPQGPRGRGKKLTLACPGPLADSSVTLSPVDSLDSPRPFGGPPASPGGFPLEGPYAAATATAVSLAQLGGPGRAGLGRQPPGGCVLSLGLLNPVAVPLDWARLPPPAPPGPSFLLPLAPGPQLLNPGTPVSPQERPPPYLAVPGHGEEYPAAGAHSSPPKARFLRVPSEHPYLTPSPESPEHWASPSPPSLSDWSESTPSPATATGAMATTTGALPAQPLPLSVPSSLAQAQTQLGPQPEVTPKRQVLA
Description: The ability of the 59R1 IgG2 antibody to cross-react with other Notch receptors was determined by FACS assay using HEK-293 cells transiently transfected with the human Notch1, Notch2, Notch3 or Notch4 expression plasmid and green fluorescent protein (GFP) as a transfection control. GFP positive cells indicated expression of the transgene. The 59R1 IgG2 was added to the cells at 2 μg/ml and detected by PE-conjugated goat anti-human Fc gamma specific (Jackson Immunochemicals). All Notch constructs were full length.

human Notch2 = human Notch2 (Homo sapiens, UniProt Q04721); experiment: FACS binding to human Notch2 on stably transfected HEK-293 cells; parameters: expressed in transfected cells; host or cells: HEK-293, stably transfected; conditions: HEK-293 stably overexpressing human Notch2
Chain of human Notch2 (Q04721 26-2471): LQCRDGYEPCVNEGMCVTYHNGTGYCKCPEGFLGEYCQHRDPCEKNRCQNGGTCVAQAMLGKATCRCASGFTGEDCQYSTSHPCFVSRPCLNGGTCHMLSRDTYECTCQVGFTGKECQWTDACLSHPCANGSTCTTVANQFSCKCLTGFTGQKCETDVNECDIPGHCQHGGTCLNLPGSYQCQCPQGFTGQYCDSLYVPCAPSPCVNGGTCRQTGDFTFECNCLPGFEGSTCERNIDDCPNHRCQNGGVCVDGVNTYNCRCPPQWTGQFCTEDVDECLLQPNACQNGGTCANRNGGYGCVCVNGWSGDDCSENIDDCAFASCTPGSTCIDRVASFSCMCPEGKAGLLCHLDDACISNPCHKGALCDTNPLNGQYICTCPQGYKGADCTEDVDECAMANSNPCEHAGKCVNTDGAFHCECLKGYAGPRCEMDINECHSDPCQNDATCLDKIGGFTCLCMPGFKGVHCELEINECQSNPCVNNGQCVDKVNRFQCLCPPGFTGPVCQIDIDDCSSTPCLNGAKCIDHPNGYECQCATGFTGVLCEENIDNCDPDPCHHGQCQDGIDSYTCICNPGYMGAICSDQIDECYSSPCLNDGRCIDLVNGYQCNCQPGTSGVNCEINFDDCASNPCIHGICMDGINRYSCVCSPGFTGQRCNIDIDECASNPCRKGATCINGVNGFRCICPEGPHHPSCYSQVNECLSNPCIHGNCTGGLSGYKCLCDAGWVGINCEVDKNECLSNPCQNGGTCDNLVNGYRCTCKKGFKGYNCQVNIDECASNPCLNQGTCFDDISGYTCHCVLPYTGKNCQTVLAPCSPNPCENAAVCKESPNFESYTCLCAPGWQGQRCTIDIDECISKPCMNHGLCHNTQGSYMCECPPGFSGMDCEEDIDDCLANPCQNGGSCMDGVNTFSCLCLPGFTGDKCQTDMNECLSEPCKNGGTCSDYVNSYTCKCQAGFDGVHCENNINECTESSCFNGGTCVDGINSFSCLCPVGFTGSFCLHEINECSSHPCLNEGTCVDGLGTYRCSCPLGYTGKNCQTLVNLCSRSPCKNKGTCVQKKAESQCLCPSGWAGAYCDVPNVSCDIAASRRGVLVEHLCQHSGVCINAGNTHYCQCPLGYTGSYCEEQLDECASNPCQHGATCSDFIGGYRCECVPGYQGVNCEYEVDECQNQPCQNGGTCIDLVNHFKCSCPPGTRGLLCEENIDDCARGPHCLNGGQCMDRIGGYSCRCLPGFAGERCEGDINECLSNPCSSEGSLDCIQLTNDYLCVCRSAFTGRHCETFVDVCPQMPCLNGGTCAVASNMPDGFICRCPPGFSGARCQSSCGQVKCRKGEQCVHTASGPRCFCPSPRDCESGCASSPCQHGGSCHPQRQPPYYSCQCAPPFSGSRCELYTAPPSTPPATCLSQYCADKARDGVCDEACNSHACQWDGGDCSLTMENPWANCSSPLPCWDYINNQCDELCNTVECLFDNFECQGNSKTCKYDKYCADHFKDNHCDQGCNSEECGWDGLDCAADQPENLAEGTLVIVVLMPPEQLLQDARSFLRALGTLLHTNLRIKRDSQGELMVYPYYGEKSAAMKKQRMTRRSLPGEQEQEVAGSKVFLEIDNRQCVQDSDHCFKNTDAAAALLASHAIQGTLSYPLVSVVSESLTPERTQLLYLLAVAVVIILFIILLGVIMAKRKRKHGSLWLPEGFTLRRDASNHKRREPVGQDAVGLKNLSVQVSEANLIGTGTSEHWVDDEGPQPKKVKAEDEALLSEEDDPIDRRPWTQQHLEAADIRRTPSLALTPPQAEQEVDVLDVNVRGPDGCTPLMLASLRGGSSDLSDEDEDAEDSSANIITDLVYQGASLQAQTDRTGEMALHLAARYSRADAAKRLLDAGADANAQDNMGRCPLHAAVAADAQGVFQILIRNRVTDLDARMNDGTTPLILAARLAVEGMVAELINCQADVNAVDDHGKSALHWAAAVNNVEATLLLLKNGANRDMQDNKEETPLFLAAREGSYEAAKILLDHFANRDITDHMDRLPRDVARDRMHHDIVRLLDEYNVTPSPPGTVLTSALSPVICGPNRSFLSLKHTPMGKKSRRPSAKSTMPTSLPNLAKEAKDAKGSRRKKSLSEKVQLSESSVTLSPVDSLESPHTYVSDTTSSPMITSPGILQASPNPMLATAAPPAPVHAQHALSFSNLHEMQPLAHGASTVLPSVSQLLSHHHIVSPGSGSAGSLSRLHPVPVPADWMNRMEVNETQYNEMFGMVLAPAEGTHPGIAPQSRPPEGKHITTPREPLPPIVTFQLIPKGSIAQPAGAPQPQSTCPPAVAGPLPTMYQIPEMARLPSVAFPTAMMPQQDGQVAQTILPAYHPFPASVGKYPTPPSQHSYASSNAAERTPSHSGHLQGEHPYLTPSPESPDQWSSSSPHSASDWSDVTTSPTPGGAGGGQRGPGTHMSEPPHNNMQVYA
Description: A particular Fab (59R1) was identified that bound the human Notch2 receptor and blocked binding of Jagged1 to human Notch2. Binding of the 59R1 Fab to human Notch2 was verified by FACS assay using a stable human cell line HEK-293 which overexpressed human Notch2 (hN2) (FIG. 1A). Fab binding was detected by phycoerythrin (PE)-conjugated goat anti-human Fab (Jackson Immunochemicals). […] Ligand binding and blocking was determined by incubating hJagged 1 extracellular domain (ECD) fused to human Fc constant region with the cells and Fabs selected from the phage library and using PE-conjugated goat anti-human Fc gamma specific antibodies (Jackson Immunochemicals) for detection.
In addition, the 59R1 IgG2 antibody was assayed for its ability to block binding of DLL4 to the human Notch 2 receptor by FACS analysis. HEK-293 cells stably overexpressing human Notch2 were incubated with the antibody at various concentration and then detected for hNotch2 binding (FIG. 1C) by PE-conjugated goat anti-human Fc gamma specific antibody, or ligand blocking activity (FIG. 1D). Ligand blocking was determined by incubating the cells with human DLL4 ECD tagged with the rabbit Fc constant region and the 59R1 antibody at a range of concentrations, and then detecting the hDLL4 by PE-conjugated donkey anti-rabbit antibody. […]

[4] = system: stroma from the xenograft models Colo205, B29, B34, B44, PE13, T1, C8, and PN8; experiment: TaqMan analysis of stromal gene expression in xenograft models; type: in vivo, mice
Source text: The expression levels in the stroma from the xenograft models Colo205, B29, B34, B44, PE13, T1 (without estrogen treatment), T1 (with estrogen treatment), C8, and PN8 of selected genes that had been identified in the microarray analysis as being regulated by treatment with 59R1 (heyl, notch3, rgs5, angpt1, and angpt2) were further analyzed by TaqMan® analysis. The results are shown in FIGS. 12A (heyl), 12B (notch3), 12C (rgs5), 12D (angpt1), and 12E (angpt2).

[5] = each of the various tumor types, relative to control

binding to full-length human Notch3 (FACS) (human Notch3): specifically binds
binding to human Notch2 (FACS) (human Notch2): confirmed
Substance: 59R1: human IgG2 antibody binding Notch2 and Notch3; heavy and light chain SEQ ID NO:16 and 18; ATCC PTA-9547
B34 breast cancer growth relative to control antibody [1]: inhibit breast cancer growth
cell cycle gene pathways, myc-activating genes and several stem cell gene sets [2]: down-regulated
C8 tumor growth relative to LZ1 control antibody [3]: inhibit tumor growth
Fold 1416286_at (Rgs4) (stroma of Colo205 tumors): −3.08
Fold 1418829_a_at (Eno2) (stroma of Colo205 tumors): 1.79
Fold 1419302_at (Heyl) (stroma of Colo205 tumors): −3.28
Fold 1420941_at (Rgs5) (stroma of Colo205 tumors): −5.10
Fold 1422789_at (Aldh1a2) (stroma of Colo205 tumors): −1.73
Fold 1428361_x_at (Hba-al/Hba-a2) (stroma of Colo205 tumors): −8.91
Fold 1449280_at (Esm1) (stroma of Colo205 tumors): 2.07
Fold 1449632_s_at (Fkbp10) (stroma of Colo205 tumors): −1.72
Fold 1459713_s_at (Tmem16a) (stroma of Colo205 tumors): −1.90
effect on down-regulation of angiopoietin-1 and angiopoietin-2 in the stroma of the T1 tumor ([4]; absence of estrogen treatment (T1 ne)): abrogated
angiopoietin-1 (angpt1) expression in stroma (TaqMan) ([4]; breast cancer models): down-regulated in the stroma of a number of the breast cancer models
angiopoietin-2 (angpt2) expression in stroma (TaqMan) ([4]; breast cancer models): down-regulated in the stroma of a number of the breast cancer models
notch3 expression in stroma (TaqMan) [4, 5]: down-regulated
rgs5 expression in stroma (TaqMan) [4, 5]: down-regulated
angpt1 and angpt2 expression in the stroma of the T1 model ([4]; estrogen treatment used (T1 e)): down-regulated
heyl expression in stroma (TaqMan) ([4]; xenograft models, relative to control): downregulated in the stroma of each of the xenograft models except B34
